This is an account of results in the RepoRT retention time repository (doi:10.1021/acs.analchem.1c00972).

Data set [1] is described as follows: RP, Waters ACQUITY UPLC BEH C18, 100 × 1 mm, 1.7 µm, 50 °C, 0.3 mL/min, estimated dead time 0.17 min; A: water + 10 mM ammonium bicarbonate; B: 10% water + 90% methanol + 10 mM ammonium bicarbonate; gradient (min/%B) 0/0 15/100 21/100 22/0 30/0. The conditions noted are these: stereoisomer not certain.
Data set [2] can be described thus: RP, Waters ACQUITY UPLC BEH C18, 100 × 1 mm, 1.7 µm, 50 °C, 0.3 mL/min, estimated dead time 0.17 min; A: water + 0.1% formic acid + 20 mM ammonium formate; B: methanol + 0.1% formic acid + 20 mM ammonium formate; gradient (min/%B) 0/0 15/100 21/100 22/0 30/0. As to conditions: stereoisomer not certain.

Structures are written as SMILES.

Consider `COC1C=COC2(C)Oc3c(C)c(O)c4c(O)c(c5c(nc6cc(C)ccn65)c4c3C2=O)NC(=O)C(C)=CC=CC(C)C(O)C(C)C(O)C(C)C(OC(C)=O)C1C` (stereo not given) [Rifaximin], for which the LC retention time in data set [1] is 14.6 min; in data set [2], 14.7 min.
Take `Cc1nc2n(c(=O)c1CCN1CCC(c3noc4cc(F)ccc34)CC1)CCCC2` [Risperidone]: the figures for the LC retention time in data set [1] and in data set [2] were 14.7 min and 10.5 min, respectively.
For `CC(C)c1nc(CN(C)C(=O)NC(C(=O)NC(Cc2ccccc2)CC(O)C(Cc2ccccc2)NC(=O)OCc2cncs2)C(C)C)cs1` (stereo not given) [Ritonavir], in that order: 16.3 min and 15.9 min.
As to `CCCN(CCC)CCc1cccc2c1CC(=O)N2` [Ropinirole], the results for the LC retention time in data set [1] and in data set [2] were 15.2 min and 8.08 min, respectively.
For `CCC1OC(=O)C(C)C(OC2CC(C)(OC)C(O)C(C)O2)C(C)C(OC2OC(C)CC(N(C)C)C2O)C(C)(O)CC(C)C(=NOCOCCOC)C(C)C(O)C1(C)O` (stereo not given) [Roxithromycin], in that order: 16.9 min and 14.3 min.
For `O=C(O)c1ccccc1O` [Salicylic acid], in that order: 4.78 min and 9.72 min.
For `CCNc1nc(NC(C)CC)[nH]c(=O)n1` (stereo not given) [Sebuthylazine-2-hydroxy], in that order: 12 min and 9.91 min.
`CC=C1CC(C)C(C)(O)C(=O)OCC2=CC[N+]3([O-])CCC(OC1=O)C23` (stereo not given) [Senecionine N-oxide]: the LC retention time in data set [1] is 9.78 min; in data set [2] it was 8.82 min.
In the case of `CC=C1CC(C)C(C)(O)C(=O)OCC2=CCN3CCC(OC1=O)C23` (stereo not given) [Senecionine], the figures for the LC retention time in data set [1] and in data set [2] were 12.5 min and 8.65 min, respectively.
Regarding `C=C1CC(=CC)C(=O)OC2CC[N+]3([O-])CC=C(COC(=O)C1(C)O)C23` (stereo not given) [Seneciphylline N-oxide], the LC retention time was 8.91 min in data set [1] and 8.11 min in data set [2].
For `C=C1CC(=CC)C(=O)OC2CCN3CC=C(COC(=O)C1(C)O)C23` (stereo not given) [Seneciphylline], in that order: 11.8 min and 7.89 min.
Turning to `C=C1C(=O)OC2CC[N+]3([O-])CC=C(COC(=O)C(C)(O)C(C)C1C)C23` (stereo not given) [Senecivernine N-oxide], the LC retention time in data set [1] is 9.7 min; in data set [2] it was 8.69 min.
Turning to `C=C1C(=O)OC2CCN3CC=C(COC(=O)C(C)(O)C(C)C1C)C23` (stereo not given) [Senecivernine], the LC retention time in data set [1] is 12.7 min; in data set [2] it was 8.55 min.
For `CC=C1CC(C)C(C)(O)C(=O)OCC2=CCN(C)CCC(OC1=O)C2=O` (stereo not given) [Senkirkine], in that order: 10.2 min and 9.47 min.
For `CCNc1nc(NCC)[nH]c(=O)n1` [Simazine 2-Hydroxy], in that order: 9.04 min and 7.39 min.
For `CC1CCC2(NC1)OC1CC3C4CC=C5CC(O)CCC5(C)C4CCC3(C)C1C2C` (stereo not given) [Solasodin], in that order: 18 min and 14.3 min.
For the compound `O=C1C=CCC2C3CCCN4CCCC(CN12)C34` (stereo not given) [Sophocarpine], the LC retention time is 12.8 min in data set [1] and 5.39 min in data set [2].
Regarding `CCOC1C(OC)C(C)OC(OC2CC3CCC4C5CC(=O)OC(CC)CCCC(OC6CCC(N(C)C)C(C)O6)C(C)C(=O)C5=CC4C3C2)C1OC` (stereo not given) [Spinetoram], the LC retention time is 19.2 min in data set [1] and 16.2 min in data set [2].
As for `CCC(C)(C)C(=O)OC1=C(c2ccc(Cl)cc2Cl)C(=O)OC12CCCCC2` [Spirodiclofen], the LC retention time in data set [1] is 18 min; in data set [2] it was 17.6 min.
In the case of `Cc1cc(C)c(C2=C(OC(=O)CC(C)(C)C)C3(CCCC3)OC2=O)c(C)c1` [Spiromesifen], the figures for the LC retention time in data set [1] and in data set [2] were 17.7 min and 17.3 min, respectively.
For `COc1cc2c(c3oc4cccc(O)c4c(=O)c13)C1C=COC1O2` (stereo not given) [Sterigmatocystin], in that order: 15 min and 14.6 min.
For the compound `CC12CCC3C(CCC4(O)CC(O)CCC34C=O)C1(O)CCC2C1=CC(=O)OC1` (stereo not given) [Strophanthidin], the LC retention time in data set [1] is 11.3 min; in data set [2], 11 min.
For `Nc1ccc(S(=O)(=O)Nc2ncccn2)cc1` [Sulfadiazin], in that order: 2.61 min and 6 min.
For `COc1ncnc(NS(=O)(=O)c2ccc(N)cc2)c1OC` [Sulfadoxine], in that order: 6.19 min and 8.86 min.
In the case of `Cc1ccnc(NS(=O)(=O)c2ccc(N)cc2)n1` [Sulfamerazine], the LC retention time is 5.61 min in data set [1] and 7.14 min in data set [2].
For `CC[N+]1([O-])CCCC1CNC(=O)c1cc(S(N)(=O)=O)ccc1OC` (stereo not given) [Sulpiride N-Oxide], in that order: 6.84 min and 6.62 min.
For the compound `CCC(=C(c1ccccc1)c1ccc(OCCN(C)C)cc1)c1ccccc1` [Tamoxifen], the LC retention time in data set [1] was 18.4 min; in data set [2] it was 15.8 min.
For `CNC(=O)N(C)c1nnc(C(C)(C)C)s1` [Tebuthiuron], in that order: 12.1 min and 11.9 min.
For `CCCc1nc2c(C)cc(-c3nc4ccccc4n3C)cc2n1Cc1ccc(-c2ccccc2C(=O)O)cc1` [Telmisartan], in that order: 14.6 min and 14.2 min.
For `CS(=O)(=O)c1ccc(C(=O)C2C(=O)CCCC2=O)c(Cl)c1COCC(F)(F)F` [Tembotrione], in that order: 15.6 min and 13.4 min.
For the compound `COP(=S)(OC)Oc1ccc(Sc2ccc(OP(=S)(OC)OC)cc2)cc1` [Temephos], the LC retention time is 17.2 min in data set [1] and 16.8 min in data set [2].
Consider `Cc1[nH]c(=O)n(C(C)(C)C)c(=O)c1Cl` [Terbacil], for which the LC retention time in data set [1] was 12 min; in data set [2], 11.8 min.
In the case of `CN(CC=CC#CC(C)(C)C)Cc1cccc2ccccc12` [Terbinafine], the LC retention time in data set [1] is 18.7 min; in data set [2] it was 14 min.
For `CCCCNc1ccc(C(=O)OCCN(C)C)cc1` [Tetracain], in that order: 15.2 min and 11.4 min.
For `CCCCOCCOCCOCCOCCO` [Tetraethyleneglycol monobutyl ether], in that order: 12 min and 11.7 min.
For `COCCOCCOCCOCCOC` [Tetraglyme], the LC retention time in data set [1] is 9.08 min; in data set [2], 9.01 min.
In the case of `COc1cc2c(cc1OC)C1Cc3ccc(OC)c(OC)c3CN1CC2` (stereo not given) [Tetrahydropalmatin], the LC retention time in data set [1] is 14.8 min; in data set [2], 9.6 min.
As to `O=C1NC(=O)C2CC=CCC12` (stereo not given) [Tetrahydrophthalimide], the LC retention time in data set [1] was 5.35 min; in data set [2], 5.38 min.
For `CN(C)C(=S)SC(=S)N(C)C` [Tetramethylthiuram monosulfide], in that order: 9.63 min and 9.49 min.
For the compound `CN1C(=O)CN=C(C2=CCCCC2)c2cc(Cl)ccc21` [Tetrazepam], the LC retention time was 15.7 min in data set [1] and 15 min in data set [2].
For `Cn1cnc2c1c(=O)[nH]c(=O)n2C` [Theobromine], in that order: 5.86 min and 5.9 min.
For `CCN(CC)C(=O)SCc1ccc(Cl)cc1` [Thiobencarb], in that order: 16.4 min and 16 min.
For `CCN(CC)CCNC(=O)c1cc(S(C)(=O)=O)ccc1OC` [Tiapride], in that order: 10.8 min and 6.49 min.
Regarding `CC(C)(C)NCC(O)COc1nsnc1N1CCOCC1` (stereo not given) [Timolol], the figures for the LC retention time in data set [1] and in data set [2] were 13.2 min and 9.08 min, respectively.
For `Cc1c(Cl)cccc1Nc1ccccc1C(=O)O` [Tolfenamics<e4>ure], in that order: 14.4 min and 16.7 min.
For `Cc1cccc(N(C)C(=S)Oc2ccc3ccccc3c2)c1` [Tolnaftate], in that order: 17 min and 16.6 min.
For `Cc1cccc2n[nH]nc12` [Tolyltriazole], in that order: 14.6 min and 9.9 min.
Regarding `Cc1cccc(Nc2ccncc2S(=O)(=O)NC(=O)NC(C)C)c1` [Torasemide], the values for the LC retention time in data set [1] and in data set [2] were 12.4 min and 11.6 min, respectively.
Regarding `CC(=O)c1cc2c(cc1C)C(C)(C)C(C)C2C(C)C` (stereo not given) [Traseolide], the LC retention time in data set [1] was 18.2 min; in data set [2] it was 17.8 min.
Regarding `CC12C=CC3=C4CCC(=O)C=C4CCC3C1CCC2O` (stereo not given) [Trenbolone], the LC retention time in data set [1] is 13.6 min; in data set [2], 13.4 min.
For `CC(=O)OCC(COC(C)=O)OC(C)=O` [Triacetin], in that order: 9.54 min and 9.42 min.
For `CC(C)N(C(=O)SCC(Cl)=C(Cl)Cl)C(C)C` [Triallate], in that order: 17.7 min and 17.3 min.
For `CC12C=CC(=O)C=C1CCC1C3CC(O)C(O)(C(=O)CO)C3(C)CC(O)C12F` (stereo not given) [Triamcinolone], in that order: 10.1 min and 10 min.
Turning to `COc1nc(C)nc(NC(=O)NS(=O)(=O)c2ccccc2OCCCl)n1` [Triasulfuron], the LC retention time in data set [1] is 9.67 min; in data set [2], 11.5 min.
For `COC(=O)c1ccccc1S(=O)(=O)NC(=O)N(C)c1nc(C)nc(OC)n1` [Tribenuron-methyl], the LC retention time is 9.4 min in data set [1] and 12.8 min in data set [2].
